What was measured:
Sclerotinia sclerotiorum [1] = assay: Fungistatic activity in Sclerotinia sclerotiorum assessed as inhibition of carpogenic germination in volatile phase at 84 umol/l measured at 20 degC after 5 days relative to control; type: functional; conditions: AT84, 120 h
Sclerotinia sclerotiorum [2] = assay: Antifungal activity against Sclerotinia sclerotiorum assessed as inhibition of germination in volatile phase at 844 umol/l measured at 20 degC after 5 days; type: functional; conditions: 120 h
Sclerotinia sclerotiorum [3] = assay: Antifungal activity against Sclerotinia sclerotiorum assessed as inhibition of mycelial growth in contact phase at 2531 umol/l measured at 20 degC after 5 days; type: functional; conditions: 120 h, read-out: GI
Sclerotinia sclerotiorum [4] = assay: In vivo antifungal Sclerotinia sclerotiorum in Pepper (Capsicum annuum L. cv. Sera Demre) assessed as inhibition of mycelial growth in volatile phase at 84 umol/L measured after 10 to 14 weeks; type: functional
Sclerotinia sclerotiorum [5] = assay: Antifungal activity against Sclerotinia sclerotiorum assessed as inhibition of mycelial growth in contact phase at 759 umol/l measured at 20 degC after 5 days; type: functional; conditions: 120 h, read-out: GI
Sclerotinia sclerotiorum [6] = assay: Antifungal activity against Sclerotinia sclerotiorum assessed as inhibition of germination in volatile phase at 42 umol/l measured at 20 degC after 5 days; type: functional; conditions: 120 h
Sclerotinia sclerotiorum [7] = assay: Fungitoxic activity in Sclerotinia sclerotiorum assessed as inhibition of mycelial growth in contact phase at 2531 umol/l measured at 20 degC after 5 days relative to control; type: functional; conditions: 120 h, read-out: GI
Sclerotinia sclerotiorum [8] = assay: Antifungal activity against Sclerotinia sclerotiorum assessed as inhibition of mycelial growth in volatile phase at 42 umol/l measured at 20 degC after 5 days; type: functional; conditions: 120 h, read-out: GI
Sclerotinia sclerotiorum [9] = assay: Antifungal activity against Sclerotinia sclerotiorum assessed as inhibition of mycelial growth in volatile phase at 588 umol/l measured at 20 degC after 5 days; type: functional; conditions: 120 h, read-out: GI
Sclerotinia sclerotiorum [10] = assay: Fungistatic activity in Sclerotinia sclerotiorum assessed as inhibition of carpogenic germination in volatile phase at 42 umol/l measured at 20 degC after 5 days relative to control; type: functional; conditions: 120 h
Sclerotinia sclerotiorum [11] = assay: Fungistatic activity in Sclerotinia sclerotiorum assessed as inhibition of mycelial growth in contact phase at 1688 umol/l measured at 20 degC after 5 days relative to control; type: functional; conditions: 120 h, read-out: GI
Sclerotinia sclerotiorum [12] = assay: Fungistatic activity in Sclerotinia sclerotiorum assessed as inhibition of mycelial growth in contact phase measured at 20 degC after 5 days; type: functional, organism-based; conditions: 120 h
Sclerotinia sclerotiorum [13] = assay: Antifungal activity against Sclerotinia sclerotiorum assessed as inhibition of mycelial growth in volatile phase at 84 umol/l measured at 20 degC after 5 days; type: functional; conditions: 120 h, read-out: GI
Sclerotinia sclerotiorum [14] = assay: Antifungal activity against Sclerotinia sclerotiorum assessed as inhibition of germination in volatile phase at 253 umol/l measured at 20 degC after 5 days; type: functional; conditions: 120 h
Sclerotinia sclerotiorum [15] = assay: Fungistatic activity in Sclerotinia sclerotiorum assessed as sclerotial viability measured at 20 degC after 5 days; type: functional, organism-based; conditions: 120 h
Sclerotinia sclerotiorum [16] = assay: Fungistatic activity in Sclerotinia sclerotiorum assessed as inhibition of mycelial growth in volatile phase measured at 20 degC after 5 days; type: functional, organism-based; conditions: 120 h
Sclerotinia sclerotiorum [17] = assay: Antifungal activity against Sclerotinia sclerotiorum assessed as inhibition of mycelial growth in contact phase at 844 umol/l measured at 20 degC after 5 days; type: functional; conditions: 120 h, read-out: GI
Sclerotinia sclerotiorum [18] = assay: Fungistatic activity in Sclerotinia sclerotiorum assessed as inhibition of mycelial growth in volatile phase at 588 umol/l measured at 20 degC after 5 days relative to control; type: functional; conditions: 120 h, read-out: GI
Sclerotinia sclerotiorum [19] = assay: Antifungal activity against Sclerotinia sclerotiorum assessed as inhibition of germination in volatile phase at 422 umol/l measured at 20 degC after 5 days; type: functional; conditions: 120 h
Sclerotinia sclerotiorum [20] = assay: Fungistatic activity in Sclerotinia sclerotiorum assessed as inhibition of carpogenic germination in volatile phase at 422 umol/l measured at 20 degC after 5 days relative to control; type: functional; conditions: 120 h
Sclerotinia sclerotiorum [21] = assay: Antifungal activity against Sclerotinia sclerotiorum assessed as inhibition of mycelial growth in volatile phase at 840 umol/l measured at 20 degC after 5 days; type: functional; conditions: 120 h, read-out: GI
Sclerotinia sclerotiorum [22] = assay: Fungistatic activity in Sclerotinia sclerotiorum assessed as inhibition of carpogenic germination in volatile phase at 840 umol/l measured at 20 degC after 5 days relative to control; type: functional; conditions: 120 h
Sclerotinia sclerotiorum [23] = assay: Fungistatic activity in Sclerotinia sclerotiorum assessed as viability in volatile phase at 844 umol/l measured at 20 degC after 5 days relative to control; type: functional; conditions: 120 h, read-out: GI
Sclerotinia sclerotiorum [24] = assay: Antifungal activity against Sclerotinia sclerotiorum assessed as inhibition of mycelial growth in contact phase at 591 umol/l measured at 20 degC after 5 days; type: functional; conditions: 120 h, read-out: GI
Sclerotinia sclerotiorum [25] = assay: Antifungal activity against Sclerotinia sclerotiorum assessed as inhibition of germination in volatile phase at 84 umol/l measured at 20 degC after 5 days; type: functional; conditions: AT84, 120 h
Sclerotinia sclerotiorum [26] = assay: Antifungal activity against Sclerotinia sclerotiorum assessed as inhibition of mycelial growth in contact phase at 1688 umol/l measured at 20 degC after 5 days; type: functional; conditions: 120 h, read-out: GI
Sclerotinia sclerotiorum [27] = assay: In vivo antifungal Sclerotinia sclerotiorum in Pepper (Capsicum annuum L. cv. Sera Demre) assessed as inhibition of mycelial growth in volatile phase at 168 umol/L measured after 10 to 14 weeks; type: functional
Sclerotinia sclerotiorum [28] = assay: Antifungal activity against Sclerotinia sclerotiorum assessed as inhibition of mycelial growth in volatile phase at 422 umol/l measured at 20 degC after 5 days; type: functional; conditions: 120 h, read-out: GI

CCCCN=C=S [BUTYL ISOTHIOCYANATE]
inhibition at 84 µM (Sclerotinia sclerotiorum [1]): 80%
inhibition at 844 µM (Sclerotinia sclerotiorum [2]): 100%
inhibition of growth at 2531 µM (Sclerotinia sclerotiorum [3]): 100%
inhibition in vivo at 84 µM (Sclerotinia sclerotiorum [4]): 31.7%
inhibition of growth at 759 µM (Sclerotinia sclerotiorum [5]): 11.7%
inhibition at 42 µM (Sclerotinia sclerotiorum [6]): 0%
inhibition of growth at 2531 µM (Sclerotinia sclerotiorum [7]): 100%
inhibition of growth at 42 µM (Sclerotinia sclerotiorum [8]): 22.8%
inhibition of growth at 588 µM (Sclerotinia sclerotiorum [9]): 72.3%
inhibition at 42 µM (Sclerotinia sclerotiorum [10]): 77.5%
inhibition of growth at 1688 µM (Sclerotinia sclerotiorum [11]): 100%
EC50 (Sclerotinia sclerotiorum [12]): 932 µM
inhibition of growth at 84 µM (Sclerotinia sclerotiorum [13]): 48.7%
inhibition at 253 µM (Sclerotinia sclerotiorum [14]): 13.3%
EC50 (Sclerotinia sclerotiorum [15]): 403 µM
EC50 (Sclerotinia sclerotiorum [16]): 87.3 µM
inhibition of growth at 844 µM (Sclerotinia sclerotiorum [17]): 29.2%
inhibition of growth at 588 µM (Sclerotinia sclerotiorum [18]): 100%
inhibition at 422 µM (Sclerotinia sclerotiorum [19]): 46.7%
inhibition at 422 µM (Sclerotinia sclerotiorum [20]): 82.5%
inhibition of growth at 840 µM (Sclerotinia sclerotiorum [21]): 100%
inhibition at 840 µM (Sclerotinia sclerotiorum [22]): 92.5%
inhibition of growth at 844 µM (Sclerotinia sclerotiorum [23]): 100%
inhibition of growth at 591 µM (Sclerotinia sclerotiorum [24]): 5%
inhibition at 84 µM (Sclerotinia sclerotiorum [25]): 0%
inhibition of growth at 1688 µM (Sclerotinia sclerotiorum [26]): 100%
inhibition in vivo at 168 µM (Sclerotinia sclerotiorum [27]): 63.3%
inhibition of growth at 422 µM (Sclerotinia sclerotiorum [28]): 70.3%

Source: ChEMBL document CHEMBL3046027, “In vitro and in vivo antifungal activity of synthetic pure isothiocyanates against Sclerotinia sclerotiorum” (Pest Manag Sci, 2011)
